Data as given in ChEMBL document CHEMBL1201862, “PubChem BioAssay data set” (2004).
The source made the active and inactive calls.

Experiments:
[1] = biological target: Beta-2 adrenergic receptor (Homo sapiens, UniProt P07550); assay: ADRB2 activation measured by internalization – cell-based, FAP fluorogen, flow cytometry, cherry pick 1, dose response (AID 588763); type: functional
[2] = biological target: DNA dC->dU-editing enzyme APOBEC-3G (Homo sapiens, UniProt Q9HC16); assay: Dose Response confirmation of small molecule APOBEC3G DNA Deaminase Inhibitors via a fluorescence-based single-stranded DNA deaminase assay. [Related pubchem assays (depositor defined):AID493012, AID493028]; type: functional
Chain of DNA dC->dU-editing enzyme APOBEC-3G (Q9HC16 whole entry): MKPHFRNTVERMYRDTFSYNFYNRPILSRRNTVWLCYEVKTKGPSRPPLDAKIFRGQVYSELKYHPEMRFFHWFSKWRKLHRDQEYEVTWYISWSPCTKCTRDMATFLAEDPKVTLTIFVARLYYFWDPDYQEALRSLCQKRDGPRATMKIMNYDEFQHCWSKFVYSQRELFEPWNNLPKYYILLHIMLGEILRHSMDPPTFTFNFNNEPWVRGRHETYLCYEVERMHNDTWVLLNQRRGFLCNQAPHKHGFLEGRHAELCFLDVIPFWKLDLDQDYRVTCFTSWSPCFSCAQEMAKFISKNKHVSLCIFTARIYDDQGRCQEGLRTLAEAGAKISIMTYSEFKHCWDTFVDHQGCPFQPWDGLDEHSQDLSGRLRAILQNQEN

[3] = A cytotoxicity screen of small molecule inhibitors of the PhoP region in Salmonella typhi identified in the primary screen. [Related pubchem assays: 1850, 1864, 1985 ]; type: functional
[4] = biological target: Glucose-6-phosphate 1-dehydrogenase (Homo sapiens, UniProt P11413); assay: inhibition of Homo sapiens G6PD, dose series – biochemical, fluorescence, selectivity assay for P. falciparum G6PD inhibitor project, dose response (AID 504792); type: functional
[5] = biological target: Dual specificity protein kinase CLK1 (Homo sapiens, UniProt P49759); assay: inhibition of human CLK1 activity – biochemical, cherry-picked samples, selectivity assay for Dyrk1A inhibitor project, dose response (AID 588811)
Chain of Dual specificity protein kinase CLK1 (P49759 whole entry, the tested form may be a part): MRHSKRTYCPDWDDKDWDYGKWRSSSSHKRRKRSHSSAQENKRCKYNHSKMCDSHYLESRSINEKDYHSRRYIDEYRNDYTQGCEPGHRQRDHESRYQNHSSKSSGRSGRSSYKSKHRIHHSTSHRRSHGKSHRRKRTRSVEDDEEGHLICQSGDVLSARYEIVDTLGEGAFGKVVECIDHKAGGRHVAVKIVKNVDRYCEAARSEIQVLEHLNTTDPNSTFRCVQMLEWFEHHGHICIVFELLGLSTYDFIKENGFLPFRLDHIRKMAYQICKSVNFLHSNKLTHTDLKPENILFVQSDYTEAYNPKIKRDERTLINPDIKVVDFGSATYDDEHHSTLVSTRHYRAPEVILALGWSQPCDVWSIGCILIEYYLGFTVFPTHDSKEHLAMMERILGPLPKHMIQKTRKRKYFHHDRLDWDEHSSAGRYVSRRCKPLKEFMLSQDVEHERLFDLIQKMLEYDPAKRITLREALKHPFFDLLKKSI

[6] = biological target: Photoreceptor-specific nuclear receptor (Homo sapiens, UniProt Q9Y5X4); type: functional, cell-based;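 also: CHO-S cells with Gal4-NCOR and VP16-NR2E3 two-hybrid luciferase reporter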
[7] = biological target: Dual specificity tyrosine-phosphorylation-regulated kinase 1A (Rattus norvegicus, UniProt Q63470); type: biochemical, Homo sapiens
[8] = biological target: T1, Heat shock factor protein 1 (Mus musculus, UniProt P38532); assay: enhancement of HSF1-driven luciferase signal – cell-based, NIH3T3, luminescence, dose retest, confirmation (AID 435004); type: functional;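 also: stress induced by proteasome inhibitor MG132 added 30 min after compound; luciferase reporter driven by HSF1 response element in NIH3T3 cells; actives raise luminescence as potentiators of the MG132 stress response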
T1 sequence (P38532 whole entry): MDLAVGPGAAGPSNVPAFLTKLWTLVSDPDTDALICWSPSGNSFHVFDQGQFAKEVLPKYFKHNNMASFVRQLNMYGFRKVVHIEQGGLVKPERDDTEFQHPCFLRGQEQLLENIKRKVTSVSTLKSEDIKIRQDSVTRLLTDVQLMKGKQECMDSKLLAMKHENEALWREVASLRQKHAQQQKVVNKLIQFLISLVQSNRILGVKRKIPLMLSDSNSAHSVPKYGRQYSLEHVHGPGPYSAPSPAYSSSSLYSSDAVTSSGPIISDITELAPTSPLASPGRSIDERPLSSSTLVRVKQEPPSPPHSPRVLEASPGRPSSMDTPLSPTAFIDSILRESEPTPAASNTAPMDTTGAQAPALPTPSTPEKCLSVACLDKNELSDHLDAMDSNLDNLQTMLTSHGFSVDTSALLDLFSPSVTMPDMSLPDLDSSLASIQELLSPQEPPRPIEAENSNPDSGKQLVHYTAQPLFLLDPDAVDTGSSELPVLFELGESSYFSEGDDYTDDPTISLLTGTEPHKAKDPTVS

Cytochrome P450 1A2 = biological target: T2, Cytochrome P450 1A2 (Homo sapiens, UniProt P05177);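 also: PubChem cytochrome P450 panel assay, CYP1A2 panel member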
T2 sequence (P05177 whole entry): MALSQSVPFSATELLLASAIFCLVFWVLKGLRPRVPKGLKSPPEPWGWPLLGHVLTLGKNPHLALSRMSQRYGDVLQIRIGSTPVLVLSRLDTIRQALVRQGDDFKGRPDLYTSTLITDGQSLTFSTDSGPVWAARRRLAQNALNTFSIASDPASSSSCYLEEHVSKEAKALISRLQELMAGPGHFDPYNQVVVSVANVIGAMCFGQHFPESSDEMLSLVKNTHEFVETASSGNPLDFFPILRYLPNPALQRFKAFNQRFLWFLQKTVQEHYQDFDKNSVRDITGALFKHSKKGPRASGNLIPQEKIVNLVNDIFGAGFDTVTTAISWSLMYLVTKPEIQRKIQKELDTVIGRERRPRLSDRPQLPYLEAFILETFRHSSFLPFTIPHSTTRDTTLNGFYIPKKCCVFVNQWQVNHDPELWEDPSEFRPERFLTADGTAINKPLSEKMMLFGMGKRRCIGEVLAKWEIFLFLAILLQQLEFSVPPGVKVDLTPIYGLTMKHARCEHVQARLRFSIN

Cytochrome P450 3A4 = Cytochrome P450 3A4 (Homo sapiens, UniProt P08684);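 also: CYP3A4 tested as one member of a cytochrome P450 panel screen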
Chain of Cytochrome P450 3A4 (P08684 whole entry): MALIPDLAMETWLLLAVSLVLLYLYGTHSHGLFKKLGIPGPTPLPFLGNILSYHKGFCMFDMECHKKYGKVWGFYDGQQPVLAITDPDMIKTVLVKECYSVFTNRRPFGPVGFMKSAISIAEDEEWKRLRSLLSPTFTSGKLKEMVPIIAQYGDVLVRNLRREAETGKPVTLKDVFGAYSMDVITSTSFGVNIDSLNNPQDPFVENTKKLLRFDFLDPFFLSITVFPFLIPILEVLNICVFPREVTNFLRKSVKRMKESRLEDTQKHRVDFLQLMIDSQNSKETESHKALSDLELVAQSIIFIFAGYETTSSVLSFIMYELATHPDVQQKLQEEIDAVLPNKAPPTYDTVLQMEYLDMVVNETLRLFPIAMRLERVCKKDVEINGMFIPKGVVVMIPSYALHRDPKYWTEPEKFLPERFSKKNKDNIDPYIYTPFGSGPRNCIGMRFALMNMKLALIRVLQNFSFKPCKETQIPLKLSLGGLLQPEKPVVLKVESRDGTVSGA

Cytochrome P450 2D6 = Cytochrome P450 2D6 (Homo sapiens, UniProt P10635);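 also: CYP2D6 member of a cytochrome P450 panel assay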
Chain of Cytochrome P450 2D6 (P10635 whole entry): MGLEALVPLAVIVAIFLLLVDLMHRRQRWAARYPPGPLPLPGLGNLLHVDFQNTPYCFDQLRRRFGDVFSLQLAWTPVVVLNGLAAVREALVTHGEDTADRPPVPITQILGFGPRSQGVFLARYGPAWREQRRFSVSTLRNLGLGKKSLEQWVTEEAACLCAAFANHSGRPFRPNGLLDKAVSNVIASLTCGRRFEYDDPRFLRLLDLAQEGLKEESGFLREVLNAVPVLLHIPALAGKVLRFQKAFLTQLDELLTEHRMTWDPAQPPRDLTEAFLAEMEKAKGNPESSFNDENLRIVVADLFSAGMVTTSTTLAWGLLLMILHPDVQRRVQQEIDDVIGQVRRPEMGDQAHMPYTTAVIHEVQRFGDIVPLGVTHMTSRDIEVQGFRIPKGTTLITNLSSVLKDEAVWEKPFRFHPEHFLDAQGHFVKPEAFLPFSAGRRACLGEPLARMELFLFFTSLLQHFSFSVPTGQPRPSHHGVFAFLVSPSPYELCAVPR

SUMO-activating enzyme [9] = biological target: T3, SUMO-activating enzyme (Homo sapiens, UniProt Q9UBT2); assay: blockers of SAE1/SAE2–UBC9 SUMO transfer – biochemical, HTRF, uHTS, primary screen (AID 2006); type: protein-complex assay
T3 sequence (Q9UBE0 whole entry): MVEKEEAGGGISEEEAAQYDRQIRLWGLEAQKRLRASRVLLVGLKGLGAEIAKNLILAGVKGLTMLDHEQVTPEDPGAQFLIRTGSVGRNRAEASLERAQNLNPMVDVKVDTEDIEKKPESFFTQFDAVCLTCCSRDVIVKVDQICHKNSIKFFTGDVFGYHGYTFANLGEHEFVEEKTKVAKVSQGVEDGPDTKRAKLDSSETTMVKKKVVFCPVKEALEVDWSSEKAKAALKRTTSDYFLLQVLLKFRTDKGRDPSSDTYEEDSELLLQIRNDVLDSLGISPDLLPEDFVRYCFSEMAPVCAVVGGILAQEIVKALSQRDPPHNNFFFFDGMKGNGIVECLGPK
T3 sequence (Q9UBT2 whole entry): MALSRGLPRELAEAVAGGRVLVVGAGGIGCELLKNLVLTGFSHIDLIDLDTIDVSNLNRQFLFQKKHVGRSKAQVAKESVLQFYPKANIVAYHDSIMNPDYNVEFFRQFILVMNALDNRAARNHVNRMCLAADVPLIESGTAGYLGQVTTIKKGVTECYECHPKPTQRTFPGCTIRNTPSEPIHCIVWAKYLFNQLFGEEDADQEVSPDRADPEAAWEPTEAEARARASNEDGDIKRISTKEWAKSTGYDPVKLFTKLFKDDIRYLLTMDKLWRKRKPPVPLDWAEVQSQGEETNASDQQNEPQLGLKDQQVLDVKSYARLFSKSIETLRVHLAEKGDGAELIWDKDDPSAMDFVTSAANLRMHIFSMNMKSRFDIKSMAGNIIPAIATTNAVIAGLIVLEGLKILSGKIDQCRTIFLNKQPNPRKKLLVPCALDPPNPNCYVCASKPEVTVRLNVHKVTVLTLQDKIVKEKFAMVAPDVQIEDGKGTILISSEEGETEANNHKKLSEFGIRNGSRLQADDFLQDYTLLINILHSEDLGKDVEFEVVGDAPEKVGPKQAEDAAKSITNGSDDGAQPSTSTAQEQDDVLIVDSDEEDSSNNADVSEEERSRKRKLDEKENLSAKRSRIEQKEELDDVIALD

[10] = biological target: Induced myeloid leukemia cell differentiation protein Mcl-1 (Homo sapiens, UniProt Q07820); type: functional
[11] = biological target: T4, Replicative DNA helicase DnaB (Mycobacterium tuberculosis, UniProt P9WMR3); assay: DnaB intein splicing inhibitors, dose response, biochemical, cell-free fluorescence (AID 449749); type: functional
T4 sequence (P9WMR3 whole entry): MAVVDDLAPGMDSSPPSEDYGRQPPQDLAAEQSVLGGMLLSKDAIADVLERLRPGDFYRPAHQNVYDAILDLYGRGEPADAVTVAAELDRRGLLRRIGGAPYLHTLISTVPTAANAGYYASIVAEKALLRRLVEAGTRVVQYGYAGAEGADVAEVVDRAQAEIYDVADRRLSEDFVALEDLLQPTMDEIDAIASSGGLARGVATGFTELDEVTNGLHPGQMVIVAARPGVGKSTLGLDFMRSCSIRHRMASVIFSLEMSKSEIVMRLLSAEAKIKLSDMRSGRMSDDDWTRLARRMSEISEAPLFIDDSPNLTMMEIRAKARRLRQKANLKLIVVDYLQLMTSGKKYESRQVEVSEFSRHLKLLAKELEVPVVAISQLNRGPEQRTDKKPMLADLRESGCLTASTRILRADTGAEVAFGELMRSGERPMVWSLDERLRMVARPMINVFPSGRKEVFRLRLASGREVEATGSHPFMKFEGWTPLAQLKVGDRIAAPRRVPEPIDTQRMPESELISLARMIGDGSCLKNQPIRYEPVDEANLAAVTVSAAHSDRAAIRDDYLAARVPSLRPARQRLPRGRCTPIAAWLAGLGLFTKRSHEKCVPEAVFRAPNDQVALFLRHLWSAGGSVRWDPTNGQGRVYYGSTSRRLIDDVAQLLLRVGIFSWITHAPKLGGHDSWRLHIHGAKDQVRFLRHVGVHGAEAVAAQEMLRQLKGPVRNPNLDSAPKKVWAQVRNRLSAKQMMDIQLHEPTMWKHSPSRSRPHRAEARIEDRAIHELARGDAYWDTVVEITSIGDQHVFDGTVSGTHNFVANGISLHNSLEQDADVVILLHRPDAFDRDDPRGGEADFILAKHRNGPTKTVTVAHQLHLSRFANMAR

Protein RecA = biological target: T5, Protein RecA (Mycobacterium tuberculosis, UniProt P9WHJ3); assay: Fluorescence Cell-Free Homogeneous Dose Retest to Identify Inhibitors of RecA-Intein Splicing Activity. [Related pubchem assays (depositor defined):AID2097, AID2223, AID489010, AID492950]; type: functional
T5 sequence (P9WHJ3 whole entry): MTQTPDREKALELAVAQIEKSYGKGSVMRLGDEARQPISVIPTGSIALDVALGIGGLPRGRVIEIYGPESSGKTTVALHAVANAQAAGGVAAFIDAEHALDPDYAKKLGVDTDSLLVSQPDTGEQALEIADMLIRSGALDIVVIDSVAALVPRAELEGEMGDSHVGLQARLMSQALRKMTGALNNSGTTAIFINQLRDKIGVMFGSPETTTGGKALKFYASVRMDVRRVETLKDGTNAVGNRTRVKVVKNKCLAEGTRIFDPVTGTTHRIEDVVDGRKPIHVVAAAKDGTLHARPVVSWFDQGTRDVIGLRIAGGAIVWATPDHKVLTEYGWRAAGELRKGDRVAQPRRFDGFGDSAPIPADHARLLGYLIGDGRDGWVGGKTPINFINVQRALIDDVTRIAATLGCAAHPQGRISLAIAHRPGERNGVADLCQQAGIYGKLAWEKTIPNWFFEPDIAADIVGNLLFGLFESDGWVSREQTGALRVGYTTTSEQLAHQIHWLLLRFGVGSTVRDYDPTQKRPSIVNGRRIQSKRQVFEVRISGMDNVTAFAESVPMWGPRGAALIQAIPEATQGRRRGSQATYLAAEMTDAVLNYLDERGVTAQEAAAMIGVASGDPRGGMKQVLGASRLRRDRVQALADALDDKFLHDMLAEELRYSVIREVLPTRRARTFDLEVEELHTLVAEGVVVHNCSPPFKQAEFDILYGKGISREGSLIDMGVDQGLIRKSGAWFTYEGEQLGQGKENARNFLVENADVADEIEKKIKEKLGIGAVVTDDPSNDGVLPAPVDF

[12] = viability loss in THP-1 monocytes – THP-1 cells, cytotoxicity control for Vif-APOBEC3G degradation inhibitor project, dose response (AID 1117359); type: functional; conditions: THP-1
SUMO-activating enzyme [13] = biological target: T3, SUMO-activating enzyme; assay: blockers of UBC9-mediated SUMO conjugation – biochemical, AlphaScreen, SUMOylation inhibitor project, confirmation (AID 2018); type: functional
Cytochrome P450 2C19 = Cytochrome P450 2C19 (Homo sapiens, UniProt P33261); assay: Cytochrome panel assay with activity outcomes. Panel member name: p450-cyp2c19 Compounds with AC50 equal or less than 10 uM are considered active; type: functional
Chain of Cytochrome P450 2C19 (P33261 whole entry): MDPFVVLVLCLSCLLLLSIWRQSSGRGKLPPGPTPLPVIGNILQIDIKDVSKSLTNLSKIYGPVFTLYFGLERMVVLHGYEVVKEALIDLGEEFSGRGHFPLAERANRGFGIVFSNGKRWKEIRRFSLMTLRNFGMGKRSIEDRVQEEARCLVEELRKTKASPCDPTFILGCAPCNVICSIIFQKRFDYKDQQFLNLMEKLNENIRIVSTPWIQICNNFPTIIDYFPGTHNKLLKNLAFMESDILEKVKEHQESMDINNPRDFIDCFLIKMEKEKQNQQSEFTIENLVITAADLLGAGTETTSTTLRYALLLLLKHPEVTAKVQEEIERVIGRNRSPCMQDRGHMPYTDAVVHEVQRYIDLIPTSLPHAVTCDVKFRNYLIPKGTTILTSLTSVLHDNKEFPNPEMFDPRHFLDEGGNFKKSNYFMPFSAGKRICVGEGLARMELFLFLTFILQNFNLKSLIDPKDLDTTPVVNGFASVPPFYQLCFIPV

[14] = biological target: Voltage-gated inwardly rectifying potassium channel KCNH2 (Homo sapiens, UniProt Q12809); conditions: Potency;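 also: confirmatory quantitative high-throughput screen measuring inhibition of hERG channel activity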
Chain of Voltage-gated inwardly rectifying potassium channel KCNH2 (Q12809 whole entry): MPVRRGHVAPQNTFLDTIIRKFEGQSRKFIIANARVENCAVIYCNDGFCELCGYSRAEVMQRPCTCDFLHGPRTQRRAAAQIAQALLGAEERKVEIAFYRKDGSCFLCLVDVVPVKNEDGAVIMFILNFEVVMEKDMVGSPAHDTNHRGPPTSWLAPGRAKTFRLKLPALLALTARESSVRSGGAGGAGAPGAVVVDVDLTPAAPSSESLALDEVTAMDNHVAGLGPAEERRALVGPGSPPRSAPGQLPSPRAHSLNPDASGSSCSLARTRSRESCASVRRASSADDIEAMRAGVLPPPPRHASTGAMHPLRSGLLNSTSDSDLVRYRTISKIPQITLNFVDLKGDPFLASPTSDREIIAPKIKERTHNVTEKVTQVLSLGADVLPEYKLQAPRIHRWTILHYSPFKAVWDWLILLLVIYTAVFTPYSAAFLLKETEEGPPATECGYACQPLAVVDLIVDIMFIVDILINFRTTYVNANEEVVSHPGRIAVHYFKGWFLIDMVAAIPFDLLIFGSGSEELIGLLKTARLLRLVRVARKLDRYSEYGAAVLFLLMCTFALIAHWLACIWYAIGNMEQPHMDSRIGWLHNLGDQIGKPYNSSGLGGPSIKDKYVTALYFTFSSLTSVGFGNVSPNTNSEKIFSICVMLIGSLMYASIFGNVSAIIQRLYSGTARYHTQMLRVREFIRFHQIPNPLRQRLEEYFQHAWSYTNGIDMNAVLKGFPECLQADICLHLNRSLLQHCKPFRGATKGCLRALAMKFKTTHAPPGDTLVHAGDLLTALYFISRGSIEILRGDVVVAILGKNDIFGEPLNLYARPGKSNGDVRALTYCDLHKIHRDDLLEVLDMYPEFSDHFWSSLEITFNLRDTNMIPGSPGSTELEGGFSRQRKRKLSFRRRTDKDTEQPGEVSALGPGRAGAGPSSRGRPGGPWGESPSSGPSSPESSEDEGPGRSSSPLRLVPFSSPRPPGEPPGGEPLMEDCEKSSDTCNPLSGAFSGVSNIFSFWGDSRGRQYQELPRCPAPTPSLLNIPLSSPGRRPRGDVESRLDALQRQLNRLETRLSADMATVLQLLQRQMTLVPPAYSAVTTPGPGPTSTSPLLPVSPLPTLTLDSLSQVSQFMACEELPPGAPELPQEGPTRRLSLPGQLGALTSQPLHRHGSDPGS

[15] = Luminescence Cell-Based Dose Retest to Confirm Inhibitors of Cancer Stem Cells. [Related pubchem assays (depositor defined):AID2717, AID2721]; type: functional; conditions: Homo sapiens
[16] = HEK-293T viability loss after treatment – luminescence, T-cell screen hits, cytotoxicity control for TCR NF-kB inhibitor project, dose response (AID 489026); type: functional, cell-based;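 also: cells exposed to compound about 14 hours before the viability readout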
INS1 = assay: INS-1E survival protection against cytokine death – cell-based, luminescence, retest, dose response (AID 449756); type: functional; conditions: Rattus norvegicus;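 also: cell death triggered by IL-1 beta plus TNF-alpha plus IFN-gamma mixture; protective hits raise ATP signal compared with cytokine alone wells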
Vero = assay: cells; type: functional; conditions: Chlorocebus sabaeus

Chain of Beta-2 adrenergic receptor (P07550 whole entry): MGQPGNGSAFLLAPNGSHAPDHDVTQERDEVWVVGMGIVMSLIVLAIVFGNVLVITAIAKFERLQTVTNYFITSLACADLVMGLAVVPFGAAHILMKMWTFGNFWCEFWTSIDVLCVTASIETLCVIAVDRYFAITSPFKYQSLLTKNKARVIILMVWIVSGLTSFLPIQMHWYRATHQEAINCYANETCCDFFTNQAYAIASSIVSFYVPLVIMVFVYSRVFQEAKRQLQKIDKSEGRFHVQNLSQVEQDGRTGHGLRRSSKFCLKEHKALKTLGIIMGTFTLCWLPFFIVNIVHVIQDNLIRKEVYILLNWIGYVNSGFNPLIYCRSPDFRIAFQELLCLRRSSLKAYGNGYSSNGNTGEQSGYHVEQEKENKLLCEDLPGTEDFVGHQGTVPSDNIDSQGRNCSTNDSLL

Q: With NC(=O)CC(NC(=O)Cc1ccc(Br)cc1)c1ccc(N2CCN(c3ccccn3)CC2)c([N+](=O)[O-])c1 (centres undefined) as the compound, how does the EC50 [1] read?
A: 12.2 µM (inactive)

Q: What does the source list for CC(=O)Nc1ccc(S(=O)(=O)NNc2cccc(C)c2)cc1?
A: IC50 [2]: 35.9 µM (active); EC50 [3]: > 50 µM (active); IC50 [4]: > 80 µM (inactive)

Q: With c1nc(NCC2CCCC2)c2cc(-c3ccc4c(c3)OCO4)ccc2n1 as the compound, how does the AC50 [5] read?
A: 0.00361 µM (active)

Q: Which EC50 [1] does the source give for CSc1ccc(C(=O)C2CCCN(Cc3cccn3-c3cccnc3)C2)cc1 (centres undefined) here?
A: 0.566 µM (active)

Q: Which IC50 [6] does the source give for O=C(CSc1nnnn1-c1ccc(O)cc1)Nc1ccc(N2CCOCC2)c(Cl)c1 here?
A: 0.488 µM (active)

Q: And the AC50 [7]?
A: 8.12 µM (active)

Q: And the AC50 [5]?
A: 8.48 µM (active)

Q: What does the source list for COc1cc(-c2nnc(SC/C=C/c3ccccc3)n2N)cc(OC)c1OC?
A: EC50 [8]: > 260 µM (inconclusive); AC50 (Cytochrome P450 1A2): 14.1 µM (inconclusive); AC50 (Cytochrome P450 3A4): 31.6 µM (inconclusive); AC50 (Cytochrome P450 2D6): inconclusive

Q: For Clc1ccc(CNc2nccc(-c3ccc4c(c3)OCO4)n2)cc1Cl, which AC50 [5] is on record?
A: < 0.00195 µM (active)

Q: Which results are given for CCc1ccc(S(=O)(=O)/N=C2\C=CC(=O)c3ccccc32)cc1?
A: IC50 (SUMO-activating enzyme [9]): 35.4 µM (active); IC50 [10]: 3.11 µM (active); AC50 [11]: 1.15 µM (active); EC50 (Protein RecA): 0.643 µM (active); CC50 [12]: 23.7 µM (active); IC50 (SUMO-activating enzyme [13]): 4.93 µM (active)

Q: For Cc1ccc(C(=O)N/N=C/c2ccc(S(=O)(=O)[O-])o2)c(Cl)c1.[Na+], which AC50 (Cytochrome P450 2D6) is on record?
A: inconclusive

Q: And the AC50 (Cytochrome P450 2C19)?
A: inconclusive

Q: For c1ccc(SCCSc2ccccc2)cc1, which AC50 [14] is on record?
A: 28.2 µM (inconclusive)

Q: For CC(C)(C)c1cc(C=C(C#N)C#N)cc(C(C)(C)C)c1O [TYRPHOSTIN A9], which AC50 [15] is on record?
A: 1.3 µM (active)

Q: What about the IC50 [16] of the same compound?
A: > 80 µM (inactive)

Q: And the AC50 (INS1)?
A: 0.928 µM (active)

Q: What about the CC50 (Vero) of the same compound?
A: 1.37 µM (active)

Q: And the AC50 (Cytochrome P450 2C19; read-out: AC50)?
A: 7.94 µM (inconclusive)

Q: And the AC50 [14]?
A: 15.8 µM (inconclusive)
